Reference: article PMC11365428 (The Journal of Biological Chemistry, 2024)
No end group written: not given here.

Columns and labels:
apTKRPR-A = molecular target: T1, apTKRPR-A (Aplysia californica, UniProt A0AAU7SSZ1); assay: IP1 accumulation assay, CHO-K1 cells transiently expressing apTKRPR-A; type: cell-based; details: for IP1 response of apTKRPR-A in screening: 10^-5 M compared with 10^-10 M (control), no Gαq cotransfection
T1 sequence (A0AAU7SSZ1 1-398): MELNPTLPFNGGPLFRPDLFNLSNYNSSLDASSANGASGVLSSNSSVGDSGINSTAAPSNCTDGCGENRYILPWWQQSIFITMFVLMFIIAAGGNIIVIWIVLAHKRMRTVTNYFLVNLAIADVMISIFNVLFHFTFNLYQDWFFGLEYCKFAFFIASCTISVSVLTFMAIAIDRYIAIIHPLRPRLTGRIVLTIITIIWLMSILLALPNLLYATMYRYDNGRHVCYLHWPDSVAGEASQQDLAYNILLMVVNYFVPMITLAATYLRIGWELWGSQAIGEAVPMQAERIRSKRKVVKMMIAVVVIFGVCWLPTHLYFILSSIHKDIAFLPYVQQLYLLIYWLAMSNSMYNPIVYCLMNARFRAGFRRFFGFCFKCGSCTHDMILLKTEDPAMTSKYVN
Protocol: (§1) To express putative Aplysia receptors transiently in CHO-K1 cells, the cDNAs were subcloned into the pcDNA3.1(+) or pcDNA3.1(+)-FLAG (for ELISA experiments only, see “Cell surface expression analysis by ELISA” section) expression vector. On the day before transfection, the CHO-K1 cells were passaged into 60 mm diameter tissue culture–treated dishes, and the transfection experiments were performed when the cells were grown to 70 to 90% confluence. CHO-K1 cells were transfected with the cDNA plasmid constructs using Turbofect Transfection reagent (Thermo Fisher Scientific, R0531), following the manufacturer’s instructions. […] The DNA/TurboFect mixture dropwise was then added to the dish, and the cells were incubated at 37 °C in a humidified incubator containing 5% CO2 overnight.
(§2) On the third day, the activation of the putative receptors was detected by monitoring intracellular IP1 concentration using an IP-One Gq kit (Cisbio, 62IPAPEB) in Tecan Spark. Except for using 0.5x reagent, all other procedures were performed following the manufacturer’s instructions. IP1 accumulation assay measures the accumulation of IP1, which is hydrolyzed from the second messenger, and inositol triphosphate. Inositol triphosphate is generated by the Gαq pathway when a GPCR is activated by an appropriate ligand.

apTKRPR-B = molecular target: T2, apTKRPR-B (Aplysia californica, UniProt A0AAU7STS1); assay: IP1 accumulation assay, CHO-K1 cells transiently expressing apTKRPR-B; type: cell-based; details: for IP1 response of apTKRPR-B in screening: 10^-5 M compared with 10^-10 M (control), no Gαq cotransfection
T2 sequence (A0AAU7STS1 1-447): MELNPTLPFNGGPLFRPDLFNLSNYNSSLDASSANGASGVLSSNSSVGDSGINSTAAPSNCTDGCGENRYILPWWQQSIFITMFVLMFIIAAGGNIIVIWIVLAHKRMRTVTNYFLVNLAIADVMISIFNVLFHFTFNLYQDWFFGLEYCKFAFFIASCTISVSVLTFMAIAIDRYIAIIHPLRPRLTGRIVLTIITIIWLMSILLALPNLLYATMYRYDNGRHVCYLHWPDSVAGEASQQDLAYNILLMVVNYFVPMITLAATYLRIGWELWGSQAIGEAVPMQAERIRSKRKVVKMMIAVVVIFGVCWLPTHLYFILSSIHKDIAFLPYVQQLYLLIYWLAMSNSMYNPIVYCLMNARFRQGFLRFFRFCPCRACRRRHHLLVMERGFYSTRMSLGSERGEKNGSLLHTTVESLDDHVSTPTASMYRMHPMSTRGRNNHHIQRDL
Protocol: as §1, §2

[1] = tested on: putative neuropeptide FF receptor (apNPFFR); assay: IP1 accumulation assay, CHO-K1 cells transiently expressing putative neuropeptide FF receptor; type: cell-based, Aplysia californica; details: 10^-5 M compared with 10^-10 M (control); n = 3; no Gαq cotransfection
Protocol: To express putative Aplysia receptors transiently in CHO-K1 cells, the cDNAs were subcloned into the pcDNA3.1(+) or pcDNA3.1(+)-FLAG (for ELISA experiments only, see “Cell surface expression analysis by ELISA” section) expression vector. On the day before transfection, the CHO-K1 cells were passaged into 60 mm diameter tissue culture–treated dishes, and the transfection experiments were performed when the cells were grown to 70 to 90% confluence. CHO-K1 cells were transfected with the cDNA plasmid constructs using Turbofect Transfection reagent (Thermo Fisher Scientific, R0531), following the manufacturer’s instructions. In brief, 4 μg of the putative receptor plasmids [in pcDNA3.1(+) or pcDNA3.1(+)-FLAG] were mixed with 400 μl of Opti-MEM (Gibco, 11058021), followed by the addition of 15 μl of TurboFect Transfection reagent and incubated at room temperature for 15 min. The DNA/TurboFect mixture dropwise was then added to the dish, and the cells were incubated at 37 °C in a humidified incubator containing 5% CO2 overnight.
as §2, with “The next day, transfected cells were trypsinized and reseeded in an opaque white 96-well half-area (Corning, 3688) or 384-well tissue culture–treated plates (Corning, 3570) at a density of 20,000 cells/well in F-12K and 10% FBS and incubated at 37 °C in a humidified incubator containing 5% CO2 overnight. On the” for “On the”

[2] = co-transfected with Gαq (Gα16), 10^-5 M compared with 10^-10 M, n = 3

Substance | IP1 response of apTKRPR-A in screening (apTKRPR-A; n = 3) | IP1 response of apTKRPR-A in screening with Gαq cotransfection (apTKRPR-A; [2]) | IP1 response of apTKRPR-B in screening (apTKRPR-B; n = 3) | IP1 response of apTKRPR-B in screening with Gαq cotransfection (apTKRPR-B; [2]) | IP1 response of putative apNPFFR in screening [1] | EC50 (apTKRPR-A; log10 of EC50 in M, negative, IP1 accumulation, CHO-K1, mean ± SD of at least three independent experiments (apTKRP-1 n = 9; apTKRP-2a n = 11; apTKRP-2b n = 19; analogs, apTKRP-2b-OH n = 4), read-out: apTKRPR-A log[EC50] (converted)) | EC50 (apTKRPR-B; log10 of EC50 in M, negative, IP1 accumulation, CHO-K1, mean ± SD of at least three independent experiments (apTKRP-1 n = 9; apTKRP-2a n = 11; apTKRP-2b n = 19; analogs, apTKRP-2b-OH n = 4), read-out: apTKRPR-B log[EC50] (converted))
FMPGLESLLLAKYYQDAKW [apTKRPG-DP] | did not activate | did not activate | did not activate | did not activate | did not respond | – | –
H-QPHLGFHGSR-NH2 [apTKRP-2a] | responded | – | responded | – | did not respond | 107 nM | 12.9 nM
